In patent publication US4892887A, “N,N'-bis(sulfonyl)hydrazines having antineoplastic activity” (Yale University, priority 1988, dated 1990):
Where two headings read alike, the source gives them in different places.

Key:
B16 melanoma = assay: Survival time of mice bearing the B16 melanoma; type: in vivo, mouse (C57B1 mice); conditions: for Max. % T/C: Table IV, B16, at optimum effective daily dose; for Av. Change in wt., %: at optimum effective daily dose, B16 mice
Method: This tumor was propagated in C57B1mice. Transplantation was carried out by removing tumors from donor mice bearing 14-day subcutaneous tumor growths. The tissue was fragmented to make a well-dispersed cellular suspension and diluted with Fischer's medium without serum so that one gram of tissue was suspended in 5 ml of solution. A portion (0.2 ml) of the resulting cell suspension was injected intraperitoneally into each recipient animal. All compounds were administered over a wide range of dosage levels by intraperitoneal injection, beginning 24 hours after tumor implantation, once daily for 6 consecutive days. The test compounds were injected as fine suspensions following homogenization in 2 to 3 drops of 20% aqueous Tween 80 and then made up to volume with isotonic saline. […] Mice were weighed during the course of the experiments, and the percent change in body weight from onset to termination of therapy was used as an indication of drug toxicity. Determination of the sensitivity of neoplasms to these agents was based on the prolongation of survival time afforded by the drug treatments.
^a Administered once daily for six consecutive days, beginnign 24
hours after tumor transplanation, with 5 animals being used per group.
^b Average change in body weight from onset to termination of therapy
^c % T/C = average survival time of treated/control animals ×
100. Each value represents the average of 5 animals per group.

L1210 leukemia = assay: Survival time of mice bearing the L1210 leukemia; type: in vivo, mouse (CDF-1 mice); conditions: for Av. Change wt. %: L1210 mice; for response vs control in vivo at 50 mg/kg / response vs control in vivo at 100 mg/kg / response vs control in vivo at 150 mg/kg: Mus musculus, read-out: % T/C; for Antineoplastic Activity (max. % T/C from Table III): Table II, L1210 leukemia; for activity against the L1210 leukemia (in words): mouse, in vivo
Text: The ascites cell forms of the L1210 leukemia, Sarcoma 180 and P388 leukemia were propagated in CDF-1 mice. […] Mice were weighed during the course of the experiments, and the percentage change in body weight from the onset to termination of therapy was used as an indication of host toxicity.
Each value represents the average of 5 animals per group.

[1] = Alkylation of 4-(4-nitrobenzyl)pyridine, absorbance at 540 nm (modified Wheeler and Chumley); conditions: for Relative Alkylating Activity: (O.D. test sample/O.D. compound 8) × 100, pH 7.4, 37°C, 540 nm
Method: Since compounds 1-13 were conceived as prodrugs of the alkylating species (II), representative compounds of this class, viz. 1-6, 8 and 10 were tested for alkylating ability using a modification of the method of Wheeler and Chumley. This method measured the absorbance at 540 nm of the alkylated product of 4-(4-nitrobenzyl)pyridine.
^a A solution of the test sample (12 micromoles) in 1 ml of acetone,
ml of distilled water and 1 ml of TrisHCl buffer (pH 7.4) was incubated
with 4(4-nitrobenzyl) pyridine (148 micromoles in 0.4 ml of acetone) for
hr at 37°C. Following additon of 2 ml of acetone and 1.5 ml of 0.2
M NaOH, the material was extracted with 5 ml of ethyl acetate. The
absorbance was determined at 540 nm 30 seconds after the addition of the
sodium hydroxide solution. The greater the absorbance value, the greater
the degree of alkylation
^b Relative Alkylating activity = (O.D. for test sample/O.D. for […]

Sarcoma 180 = assay: Survival time of mice bearing Sarcoma 180; type: in vivo, mouse (CDF-1 mice)
Method: The tumor-inhibitory properties of compounds 1-12 were determined by measuring their effects on the survival time of mice bearing the L1210 leukemia and in some cases Sarcoma 180, and the P388 leukemia. The ascites cell forms of the L1210 leukemia, Sarcoma 180 and P388 leukemia were propagated in CDF-1 mice. Transplantation was carried out using donor mice bearing 7-day tumor growths; experimental details are described in Agrawal et al., J. Med. Chem., 11, 700, 1968, incorporated herein by reference. Mice were weighed during the course of the experiments, and the percentage change in body weight from the onset to termination of therapy was used as an indication of host toxicity.

[2] = 50 mg/kg once daily for six days
[3] = 100 mg/kg once daily for six days
[4] = 150 mg/kg once daily for six days
[5] = 144 h, 50 mg/kg once daily for six days, L1210
[6] = 144 h, 100 mg/kg once daily for six days, L1210
[7] = 144 h, 150 mg/kg once daily for six days, L1210

SMILES	Max. % T/C (B16 melanoma) [% T/C]	Av. Change in wt., % (B16 melanoma)	Average Survival Time of Treated Animals, days ± SE (L1210 leukemia; [2]) [days]	Av. Change wt. % (L1210 leukemia; [2])	Average Survival Time of Treated Animals, days ± SE (L1210 leukemia; [3]) [days]	Av. Change wt. % (L1210 leukemia; [3])	Average Survival Time of Treated Animals, days ± SE (L1210 leukemia; [4]) [days]	Av. Change wt. % (L1210 leukemia; [4])	response vs control in vivo at 50 mg/kg (L1210 leukemia; [5]) [%]	response vs control in vivo at 100 mg/kg (L1210 leukemia; [6]) [%]	response vs control in vivo at 150 mg/kg (L1210 leukemia; [7]) [%]	Antineoplastic Activity (max. % T/C from Table III) (L1210 leukemia) [% T/C]	activity against the L1210 leukemia (in words) (L1210 leukemia)	rate of decomposition to a reactive species (in words) [1]	Relative Alkylating Activity [1]	Max. % T/C vs. Sarcoma 180 (Sarcoma 180; at 100 mg/kg) [% T/C]	dosage range of activity against the B16 melanoma (B16 melanoma; B16 melanoma in mice) [mg/kg]	Max. % T/C vs. Sarcoma 180 (Sarcoma 180; at 50 mg/kg) [% T/C]	response vs control in vivo at 150 mg/kg (L1210 leukemia; L1210, 144 h) [%]	alkylating activity / absorbance (in words) [1]
Cc1ccc(S(=O)(=O)NN(C)S(=O)(=O)c2ccc(Cl)cc2)cc1 [Compound 5, N-(p-chlorobenzenesulfonyl)-N-methyl-N'-(p-toluenesulfonyl)hydrazine]	162	-0.4%	10.4 ± 0.4	+5.1%	13.0 ± 2.2	+5.5%	10.0 ± 0.3	-4.6%	113	141	109	141	active against the L1210 leukemia	decomposed less rapidly than compound 10	169	–	–	–	–	–
CN(NS(=O)(=O)c1ccccc1)S(=O)(=O)c1ccccc1 [Compound 7, N,N'-bis(benzenesulfonyl)-N-methylhydrazine]	175	-2.3%	13.2 ± 0.7	-4.8%	11.6 ± 0.2	-5.2%	9.4 ± 0.4	-13.5%	147	129	104	–	–	–	–	203	–	–	–	–
Cc1ccc(S(=O)(=O)NN(C)S(=O)(=O)c2ccc(C)cc2)cc1 [Compound 8, N,N'-bis (4-toluenesulfonyl)-N-methylhydrazine]	165	-2.7%	14.0 ± 1.3	+3.7%	13.6 ± 2.4	+0.8%	–	–	147	143	–	147	–	–	100	–	50 to 150	197	–	–
CN(NS(=O)(=O)c1ccc(Cl)cc1)S(=O)(=O)c1ccc(Cl)cc1 [Compound 10, N,N'-bis (p-chlorobenzenesulfonyl)-N-methylhydrazine]	163	+4.8%	9.2 ± 0.2	+4.1%	11.4 ± 0.8	+4.0%	11.8 ± 1.1	+1.3%	97	120	–	124	virtually inactive	rapid decomposition to a reactive species	185	–	–	–	124	highest
